Reference: patent publication US9512459B2 (priority 2011, dated 2016)
Read-outs that look alike come from different tables or passages of the source.

Tests used:
[1] = molecular target: Sclerotinia sclerotiorum glucose dehydrogenase (FAD-GDH) Ssc-n2 variant N191R/S529G, SEQ ID NO: 1 (Sclerotinia sclerotiorum, UniProt A7F9L2, N191R/S529G); settings: 60 ml culture, crude enzyme; glucose 1-40 mM, pH 6.5, DCIP/PMS
Description: (§1) The transformant BL21 (DE3) expressing each mutated enzyme was precultured. The transformant was inoculated in an amount of 1% with respect to 60 ml of a medium A using a 300-ml baffled flask and shake-cultured under conditions involving 20° C., 28 hours, and 125 rpm. After collection of 50 ml of the medium, the bacterial cells were suspended by the addition of BugBuster (registered trademark) protein extraction reagent (Novagen/Merck KGaA) at a ratio of 5 ml per g of wet cells and incubated at room temperature for 15 minutes with gentle shaking. Insoluble fractions were removed by centrifugation (15 Krpm, 4° C., 20 minutes). Then, the obtained supernatant was dialyzed overnight at 4° C. against a 20 mM potassium phosphate buffer solution (pH 6.5). After the completion of the dialysis, the dialysate was centrifuged, and the supernatant was used as a crude enzyme preparation. Insoluble fractions were suspended in a 20 mM potassium phosphate buffer solution (pH 6.5) at a ratio of 1 ml per 2 ml of the suspension containing the insoluble fractions.
(§2) The GDH activity was measured in a DCIP (0.3 mM)/PMS (0.6 mM) system using a 20 mM potassium phosphate buffer solution (pH 6.5) as a buffer solution and glucose (Glc; 1, 2, 4, 10, 20, and 40 mM) and xylose (Xyl; 4 and 40 mM) as substrates.
(§3) The numeric values in the tables represent a mean of several data about specific activity (U/mg) and productivity (U/L) obtained under the same conditions with 40 mM glucose as a substrate. The obtained crude enzyme preparation was used to observe the correlation between the concentration of the substrate (glucose; 1, 2, 4, 10, 20, and 40 mM) and the activity. The obtained Michaelis-Menten constant (Km value) and apparent maximum activity (Vmax) were determined from a saturation curve determined therefrom.

[2] = molecular target: Sclerotinia sclerotiorum glucose dehydrogenase (FAD-GDH) Ssc-n1 variant N191S, SEQ ID NO: 1 (Sclerotinia sclerotiorum, UniProt A7F9L2, N191S); settings: 60 ml culture, crude enzyme; glucose 1-40 mM, pH 6.5, DCIP/PMS
Description: as §1, §2, §3

[3] = molecular target: Sclerotinia sclerotiorum glucose dehydrogenase (FAD-GDH) Ssc-n1 variant N191K, SEQ ID NO: 1 (Sclerotinia sclerotiorum, UniProt A7F9L2, N191K); settings: 60 ml culture, crude enzyme; glucose 1-40 mM, pH 6.5, DCIP/PMS
Description: as §1, §2, §3

[4] = molecular target: Sclerotinia sclerotiorum glucose dehydrogenase (FAD-GDH) Ssc-n3 variant N191K/S529G, SEQ ID NO: 1 (Sclerotinia sclerotiorum, UniProt A7F9L2, N191K/S529G); settings: 60 ml culture, crude enzyme; glucose 1-40 mM, pH 6.5, DCIP/PMS
Description: as §1, §2, §3

[5] = molecular target: Sclerotinia sclerotiorum glucose dehydrogenase (FAD-GDH) Ssc-n1 variant N191E, SEQ ID NO: 1 (Sclerotinia sclerotiorum, UniProt A7F9L2, N191E); settings: 60 ml culture, crude enzyme; glucose 1-40 mM, pH 6.5, DCIP/PMS
Description: as §1, §2, §3

[6] = molecular target: Sclerotinia sclerotiorum glucose dehydrogenase (FAD-GDH) Ssc-n1 variant N191R, SEQ ID NO: 1 (Sclerotinia sclerotiorum, UniProt A7F9L2, N191R); settings: 60 ml culture, crude enzyme; glucose 1-40 mM, pH 6.5, DCIP/PMS
Description: as §1, §2, §3

[7] = molecular target: Sclerotinia sclerotiorum glucose dehydrogenase (FAD-GDH) Ssc-n2 variant N191E/S529G, SEQ ID NO: 1 (Sclerotinia sclerotiorum, UniProt A7F9L2, N191E/S529G); settings: 60 ml culture, crude enzyme; glucose 1-40 mM, pH 6.5, DCIP/PMS
Description: as §1, §2, §3

[8] = molecular target: Sclerotinia sclerotiorum glucose dehydrogenase (FAD-GDH) Ssc-n1 variant S529G, SEQ ID NO: 1 (Sclerotinia sclerotiorum, UniProt A7F9L2, S529G); settings: 60 ml culture, crude enzyme; glucose 1-40 mM, pH 6.5, DCIP/PMS
Description: as §1, §2, §3

[9] = molecular target: Sclerotinia sclerotiorum glucose dehydrogenase (FAD-GDH) Ssc-n4 variant N191K/S529G, SEQ ID NO: 1 (Sclerotinia sclerotiorum, UniProt A7F9L2, N191K/S529G); settings: 60 ml culture, crude enzyme; glucose 1-40 mM, pH 6.5, DCIP/PMS
Description: as §1, §2, §3

[10] = molecular target: Sclerotinia sclerotiorum glucose dehydrogenase (FAD-GDH) Ssc-n2 variant N191S/S529G, SEQ ID NO: 1 (Sclerotinia sclerotiorum, UniProt A7F9L2, N191S/S529G); settings: 60 ml culture, crude enzyme; glucose 1-40 mM, pH 6.5, DCIP/PMS
Description: as §1, §2, §3

[11] = molecular target: Sclerotinia sclerotiorum glucose dehydrogenase (FAD-GDH) Ssc-n2 variant N191K/S529G/G69A, SEQ ID NO: 1 (Sclerotinia sclerotiorum, UniProt A7F9L2, G69A/N191K/S529G); settings: crude enzyme, glucose 1-40 mM, pH 6.5, DCIP/PMS
Description: as §1
(§4) A small-scale expression system was used for some multiple-mutated enzymes. The transformant BL21 (DE3) expressing each mutated enzyme was precultured, and the transformant was inoculated in an amount of 1 vol % with respect to 3 ml of a medium A. The bacterial cells were shake-cultured at 37° C. for 4 hours and then shake-cultured at 20° C. for 20 hours. After the culture, 2 ml of the medium was collected, then suspended by the addition of 400 μl of BugBuster (registered trademark), and then shaken at room temperature for 15 minutes. Then, the suspension was centrifuged (15000 rpm, 4° C., 20 minutes), and the obtained supernatant was used as a crude enzyme preparation.
as §2, §3

[12] = molecular target: Sclerotinia sclerotiorum glucose dehydrogenase (FAD-GDH) Ssc-n2 variant N191K/S529G/G69H, SEQ ID NO: 1 (Sclerotinia sclerotiorum, UniProt A7F9L2, G69H/N191K/S529G); settings: crude enzyme, glucose 1-40 mM, pH 6.5, DCIP/PMS
Description: as §1, §4, §2, §3

[13] = molecular target: Sclerotinia sclerotiorum glucose dehydrogenase (FAD-GDH) Ssc-n2 variant N191K/S529G/G69N, SEQ ID NO: 1 (Sclerotinia sclerotiorum, UniProt A7F9L2, G69N/N191K/S529G); settings: crude enzyme, glucose 1-40 mM, pH 6.5, DCIP/PMS
Description: as §1, §4, §2, §3

[14] = molecular target: Sclerotinia sclerotiorum glucose dehydrogenase (FAD-GDH) Ssc-n2 variant N191K/S529G, SEQ ID NO: 1 (Sclerotinia sclerotiorum, UniProt A7F9L2, N191K/S529G); settings: crude enzyme, glucose 1-40 mM, pH 6.5, DCIP/PMS
Description: as §1, §4, §2, §3

[15] = molecular target: Sclerotinia sclerotiorum glucose dehydrogenase (FAD-GDH) Ssc-n2 variant N191K/S529G/Y70F, SEQ ID NO: 1 (Sclerotinia sclerotiorum, UniProt A7F9L2, N191K/S529G/Y70F); settings: crude enzyme, glucose 1-40 mM, pH 6.5, DCIP/PMS
Description: as §1, §4, §2, §3

Which Vmax [1] does the source give for `OC[C@H]1OC(O)[C@H](O)[C@@H](O)[C@@H]1O` (some centres unmarked) [glucose] here?
Its Vmax is 15.7 U/mg protein.

What about the Vmax [2] of the same molecule?
Its Vmax is 3.7 U/mg protein.

What about the Vmax [3] of the same molecule?
Its Vmax is 1.6 U/mg protein.

And the Vmax [4]?
Its Vmax is 6.9 U/mg protein.

And the Vmax [5]?
Its Vmax is 5.6 U/mg protein.

And the Vmax [6]?
Its Vmax is 5.6 U/mg protein.

And the Vmax [7]?
Its Vmax is 20.2 U/mg protein.

What about the Vmax [8] of the same molecule?
Its Vmax is 3.6 U/mg protein.

And the Vmax [9]?
The Vmax was 9.2 U/mg protein.

What about the Vmax [10] of the same molecule?
Its Vmax is 19.4 U/mg protein.

And the Vmax ([11]; 3 ml culture)?
Its Vmax is 15.8 U/mg protein.

And the Vmax ([11]; 60 ml culture)?
Its Vmax is 26.4 U/mg protein.

What about the Vmax ([12]; 3 ml culture) of the same molecule?
Its Vmax is 11.1 U/mg protein.

And the Vmax ([12]; 60 ml culture)?
The Vmax was 6.9 U/mg protein.

What about the Vmax ([13]; 3 ml culture) of the same molecule?
Its Vmax is 11.5 U/mg protein.

And the Vmax ([13]; 60 ml culture)?
Its Vmax is 13.9 U/mg protein.

What about the Vmax ([14]; 3 ml culture) of the same molecule?
Its Vmax is 16.9 U/mg protein.

And the Vmax ([14]; 60 ml culture)?
Its Vmax is 38.2 U/mg protein.

And the Vmax ([15]; 3 ml culture)?
Its Vmax is 9.0 U/mg protein.

And the Vmax ([15]; 60 ml culture)?
Its Vmax is 23.8 U/mg protein.
